Measured values from patent publication US6455469B1, “Herbicidal composition” (Ishihara Sangyo Kaisha, Ltd., priority 2000, dated 2002).

Assays:
Format in all cases: in vivo
[1] = test system: six broadleaf weeds (CASOB, IPOHE, ABUTH, AMARE, CHEAL, XANST); assay: Greenhouse pre-emergence test, mean control of six broadleaf weeds; settings: soil surface spray 1 day after planting, visual rating 0-100% after two weeks, grass herbicides 1000 g/ha, atrazine 1680 g/ha, isoxaflutole 78 g/ha, B-128 125 g/ha
Text: (§1) Seeds of weed species were sown in 10 cm square plastic pots containing a 3:2:1 sand:soil:peat mixture. Species included six broadleaf weeds, CASOB (Cassia obtusifolia, L., sicklepod), IPOHE (Ipomoea hederacea, L., ivyleaf morningglory), ABUTH (Abutilon theophrastii, velvetleaf, AMARE (Amaranthus retroflexus, redroot pigweed), CHEAL (Chenopodium album, lambsquarters) and XANST (Xanthium strumarium, cocklebur ), four grass weeds, SORHA (Sorghum halepense, johnsongrass), SETVI (Setaria viridis, green foxtail), ECHCG (Echinochloa crus-galli, bamyardgrass), and DIGSA (Digitria sanguinalis, large crabgrass) and four crops species, Zea mays, Glycine max L. Triticum aestivum, and Oryza sativa. Herbicide treatments were applied in water carrier via automated track sprayer to the soil surface of these pots 1 day after planting. The sprayer was calibrated to deliver the material in a volume of 187 l/ha through a TJ8001E spray nozzle at a pressure of 40 PSI.
(§2) Treatments included the compounds of formula I numbers 1, 15, 16 and 23, the commercial grass herbicides metolachlor S (Dual II Magnum®), acetochlor (Harness®), alachlor (Lasso MT®) alone and in combination with three broadleaf herbicides, atrazine, isoxaflutole and compound B-128 (Table 2). All grass herbicides (compounds 1, 15, 16, 23, metolachlor S, acetochlor and alachor were applied at a rate of 1000 g/ha. The broadleaf herbicides were applied at 1680 g/ha for atrazine, 78 g/ha for isoxaflutole and 125 g/ha for B-128.
(§3) After treatment, pots were returned to a greenhouse where they were watered and held in good growth conditions for two weeks. At the end of two weeks, herbicidal efficacy was evaluated visually using a rating system from 0-100%, where 0=no inhibition of growth, and 100=complete death of all plants in the testing unit. Results are reported in table 3 as the mean control of all six broadleaf weeds, mean control of all four grass weeds and the phytotoxicity to maize.

[2] = test system: four grass weeds (SORHA, SETVI, ECHCG, DIGSA); assay: Greenhouse pre-emergence test, mean control of four grass weeds; settings: soil surface spray 1 day after planting, visual rating 0-100% after two weeks, grass herbicides 1000 g/ha, atrazine 1680 g/ha, isoxaflutole 78 g/ha, B-128 125 g/ha
Text: as §1, §2, §3

broadleaf weeds = assay: Field trials, mean control of broadleaf weeds; settings: grass herbicides 1000 g/ha, atrazine 1680 g/ha, B-128 150 g/ha
Text: (§4) Two field trials were established on contrasting soil types. Trial 1 was on a soil with low organic matter and high sand content, and trial 2 was on a clay loam soil with moderate amounts of organic matter. In both cases, the soil was overseeded (followed by light tillage) with seeds of Amaranthus retroflexus, Abutilon theophrasti, Chenopodium album, Ipomoea hederacea, and Setaria viridis to ensure consistent weed populations. Maize was planted with 30 inches between rows. Immediately after planting the maize, herbicidal treatments were applied using a boom sprayer equipped with Tee Jet 110-015 nozzles applying the spray solution at a rate of 187 l/hectare. Untreated check plots were included as the basis for comparison of herbicidal efficacy.
(§5) Treatments included the compound of formula I number 16, the commercial grass herbicides metolachlor S (Dual II Magnum®), acetochlor (Harness®) and dimethenamid (Frontier®) alone and in combination with two broadleaf herbicides, atrazine and B-128. All grass herbicides (compound 16, metolachlor S, acetochlor and dimethenamid) were applied at a rate of 1000 g/ha. The broadleaf herbicides were applied at 1680 g/ha for atrazine and 150 g/ha for B-128.
(§6) Observations on percent weed control and phytotoxicity to maize were made at 35 days after treatment for field trial 1 and 21 days after application for field trial 2. All visual estimates were made in comparison to untreated check plots. Results reported are the mean control of broadleaf weeds, and percent control for Setaria viridis, the predominant grassy weed in this experiment.

Setaria viridis = assay: Field trials, control of Setaria viridis; settings: grass herbicides 1000 g/ha, atrazine 1680 g/ha, B-128 150 g/ha
Text: as §4, §5, §6

maize [3] = assay: Greenhouse pre-emergence test, phytotoxicity to maize
Text: as §1, with “PSI. […]” for “PSI.”
as §3, with “Results are reported in table 3 as the mean control of all six broadleaf weeds, mean control of all four grass weeds and the phytotoxicity to maize.” left out

maize [4] = assay: Field trials, phytotoxicity to maize; settings: grass herbicides 1000 g/ha, atrazine 1680 g/ha, B-128 150 g/ha
Text: as §4, §5, §6

[5] = test system: Amaranthus retroflexus, Abutilon theophrasti, Chenopodium album, Ipomoea hederacea, and Setaria viridis; assay: Field trials, overall herbicidal performance in words
Text: as §4, §5
Observations on percent weed control and phytotoxicity to maize were made at 35 days after treatment for field trial 1 and 21 days after application for field trial 2. […]

[6] = field trial 1, low organic matter, high sand content soil, 35 days after application
[7] = field trial 2, moderate organic matter, high clay content soil, 21 days after application

Q: Which results are given for `COCC(C)N(C(=O)CCl)c1c(C)csc1C` (centres unmarked) [dimethenamid, 2-chloro-N-[(1-methy-2-methoxyl)ethyl]-N-(2,4-dimethyl-3-thienyl)-acetamide]?
A: broadleaf control [1]: 68%; Grass control [2]: 100%; broadleaf control (broadleaf weeds; [6]): 44%; broadleaf control (broadleaf weeds; [7]): 26%; S. viridis control (Setaria viridis; [6]): 100%; S. viridis control (Setaria viridis; [7]): 86%

Q: With `CCc1cccc(C)c1N(C(=O)CCl)[C@@H](C)COC` [Metolachlor S, (S)-2-chloro-N-(2-ethyl-6-methylphenyl)-N-(2-methoxy-1-methylethyl)acetamide] as the molecule, how does the broadleaf control [1] read?
A: Its broadleaf control is 41%.

Q: What about the Grass control [2] of the same molecule?
A: Its Grass control is 100%.

Q: And the Phytotoxicity (maize [3]; phytotoxicity to maize, greenhouse, visual rating 0-100% after two weeks, grass herbicides 1000 g/ha, atrazine 1680 g/ha, isoxaflutole 78 g/ha, B-128 125 g/ha)?
A: The Phytotoxicity was 0%.

Q: And the broadleaf control (broadleaf weeds; [6])?
A: The broadleaf control was 40%.

Q: And the broadleaf control (broadleaf weeds; [7])?
A: The broadleaf control was 18%.

Q: And the S. viridis control (Setaria viridis; [6])?
A: Its S. viridis control is 100%.

Q: What about the S. viridis control (Setaria viridis; [7]) of the same molecule?
A: The S. viridis control was 60%.

Q: And the Phytotoxicity (maize [4]; [6])?
A: The Phytotoxicity was 0%.

Q: And the Phytotoxicity (maize [4]; [7])?
A: The Phytotoxicity was 1%.

Q: Which broadleaf control [1] does the source give for `C#CCN(C(=O)CCl)c1c(CC)cccc1CC` [Cpd 16] here?
A: The broadleaf control was 53%.

Q: And the Grass control [2]?
A: The Grass control was 100%.

Q: What about the broadleaf control (broadleaf weeds; [6]) of the same molecule?
A: The broadleaf control was 33%.

Q: And the broadleaf control (broadleaf weeds; [7])?
A: The broadleaf control was 24%.

Q: And the S. viridis control (Setaria viridis; [6])?
A: Its S. viridis control is 96%.

Q: What about the S. viridis control (Setaria viridis; [7]) of the same molecule?
A: The S. viridis control was 75%.

Q: And the Phytotoxicity (maize [4]; [6])?
A: The Phytotoxicity was 0%.

Q: What about the Phytotoxicity (maize [4]; [7]) of the same molecule?
A: Its Phytotoxicity is 2%.

Q: And the “performance (in words)” value ([5]; higher organic, high clay soil, compared with the three standards)?
A: Its value is “relatively better than two of the three standards”.

Q: And the “efficacy (in words)” value ([5]; sandy, low organic matter soil, combined with atrazine or B-128)?
A: The value was “equal efficacy as other herbicides”.

Q: For `C#CCN(C(=O)CCl)c1c(C)cccc1C` [Cpd 23], which broadleaf control [1] is on record?
A: The broadleaf control was 33%.

Q: And the Grass control [2]?
A: Its Grass control is 100%.

Q: What about the “phytotoxicity to maize (in words)” value (maize [3]; in vivo) of the same molecule?
A: Its value is “moderately more phytotoxic”.

Q: For `C#CCN(C(=O)CCl)c1c(C)cccc1CC` [Cpd 15], which broadleaf control [1] is on record?
A: The broadleaf control was 32%.

Q: What about the Grass control [2] of the same molecule?
A: Its Grass control is 100%.

Q: How did the broadleaf control [1] turn out when `CCOCN(C(=O)CCl)c1c(C)cccc1CC` [acetochlor, 2-chloro-N-ethoxymethyl-6′-ethylacet-o-toluidide] was run?
A: The broadleaf control was 75%.

Q: What about the Grass control [2] of the same molecule?
A: The Grass control was 100%.

Q: And the broadleaf control (broadleaf weeds; [6])?
A: Its broadleaf control is 50%.

Q: What about the broadleaf control (broadleaf weeds; [7]) of the same molecule?
A: Its broadleaf control is 36%.

Q: And the S. viridis control (Setaria viridis; [6])?
A: Its S. viridis control is 99%.

Q: What about the S. viridis control (Setaria viridis; [7]) of the same molecule?
A: Its S. viridis control is 87%.

Q: Which broadleaf control [1] does the source give for `CCc1cccc(CC)c1N(CC#N)C(=O)CCl` [Cpd 1] here?
A: Its broadleaf control is 22%.

Q: What about the Grass control [2] of the same molecule?
A: The Grass control was 100%.
